The target in this assay is p38 and MK2 (Homo sapiens, UniProt Q16539). The assay is classed as binding. The settings on record: competitor 10 μM, LTR 2 500 nM, p38 400 nM, MK2 400 nM, UV 30 min.
Sequence of p38 and MK2 (Q16539 whole entry): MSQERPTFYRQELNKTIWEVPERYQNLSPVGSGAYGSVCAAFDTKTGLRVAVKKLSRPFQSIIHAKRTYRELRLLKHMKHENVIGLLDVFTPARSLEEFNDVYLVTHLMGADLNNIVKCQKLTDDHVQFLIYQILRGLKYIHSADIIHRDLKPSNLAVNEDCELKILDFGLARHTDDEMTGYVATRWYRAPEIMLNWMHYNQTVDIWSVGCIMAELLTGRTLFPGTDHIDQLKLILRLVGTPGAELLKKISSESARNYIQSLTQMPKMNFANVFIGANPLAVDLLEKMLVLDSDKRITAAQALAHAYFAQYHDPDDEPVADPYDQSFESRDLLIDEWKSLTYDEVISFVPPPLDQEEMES
Sequence of p38 and MK2 (P49137 whole entry partner): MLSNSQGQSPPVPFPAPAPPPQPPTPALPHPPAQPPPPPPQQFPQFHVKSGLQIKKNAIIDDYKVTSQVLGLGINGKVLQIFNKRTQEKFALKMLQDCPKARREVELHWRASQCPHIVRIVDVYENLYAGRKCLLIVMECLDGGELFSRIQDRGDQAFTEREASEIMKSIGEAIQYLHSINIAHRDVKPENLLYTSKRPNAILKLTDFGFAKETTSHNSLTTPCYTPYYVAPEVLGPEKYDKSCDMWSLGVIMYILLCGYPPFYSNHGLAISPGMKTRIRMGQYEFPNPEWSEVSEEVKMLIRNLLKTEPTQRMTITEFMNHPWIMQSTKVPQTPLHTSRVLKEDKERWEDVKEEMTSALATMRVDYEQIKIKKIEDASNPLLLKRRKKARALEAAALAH

In the case of `Cc1nc(Nc2ncc(C(=O)Nc3c(C)cccc3Cl)s2)cc(N2CCN(CCO)CC2)n1` [dasatinib], the “blocking of labeling of p38 and MK2” value was “does not completely block labeling”.

Regarding `C#Cc1cccc(Nc2ncnc3cc(OCCOC)c(OCCOC)cc23)c1` [erlotinib], the “blocking of labeling of p38 and MK2” value was “do not block labeling”.

The record behind these values is paper PMC3762675 (Chembiochem : a European journal of chemical biology, 2013).
